Measured values as given in patent publication EP4745135A1 (Gluetacs Therapeutics (Shanghai) Co., Ltd., priority 2023, dated 2025).

Tests used:
IKZF1 = molecular target: T1, IKZF1 (Homo sapiens, UniProt Q13422+Q96SW2); assay: Western blot, degradation of substrate protein in hPBMCs; assay type: cell-based
T1 construct: effects of the compounds of the present disclosure on the expression of target proteins in cells; endogenous in cells; host or cells: human PBMCs (Milecell Biotechnologies)

IKZF3 = molecular target: T2, IKZF3 (Homo sapiens, UniProt Q96SW2+Q9UKT9); assay: as above; assay type: cell-based
T2 construct: effects of the compounds of the present disclosure on the expression of target proteins in cells; endogenous in cells; host or cells: human PBMCs (Milecell Biotechnologies)
T2 sequence (Q9UKT9 whole entry): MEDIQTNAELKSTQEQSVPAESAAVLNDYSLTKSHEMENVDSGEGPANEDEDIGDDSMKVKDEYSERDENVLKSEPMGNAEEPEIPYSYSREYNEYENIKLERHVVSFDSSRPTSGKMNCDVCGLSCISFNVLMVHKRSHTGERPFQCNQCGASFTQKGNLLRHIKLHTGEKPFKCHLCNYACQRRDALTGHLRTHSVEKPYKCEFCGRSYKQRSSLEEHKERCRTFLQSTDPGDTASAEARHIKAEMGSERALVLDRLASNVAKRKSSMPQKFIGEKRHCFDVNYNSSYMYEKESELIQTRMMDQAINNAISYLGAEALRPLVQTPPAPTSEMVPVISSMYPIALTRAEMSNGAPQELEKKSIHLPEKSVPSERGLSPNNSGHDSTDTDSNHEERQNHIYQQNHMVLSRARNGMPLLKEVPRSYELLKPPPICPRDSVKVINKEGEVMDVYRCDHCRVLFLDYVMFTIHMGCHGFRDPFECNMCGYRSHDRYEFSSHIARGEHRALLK
T2 sequence (Q96SW2 whole entry): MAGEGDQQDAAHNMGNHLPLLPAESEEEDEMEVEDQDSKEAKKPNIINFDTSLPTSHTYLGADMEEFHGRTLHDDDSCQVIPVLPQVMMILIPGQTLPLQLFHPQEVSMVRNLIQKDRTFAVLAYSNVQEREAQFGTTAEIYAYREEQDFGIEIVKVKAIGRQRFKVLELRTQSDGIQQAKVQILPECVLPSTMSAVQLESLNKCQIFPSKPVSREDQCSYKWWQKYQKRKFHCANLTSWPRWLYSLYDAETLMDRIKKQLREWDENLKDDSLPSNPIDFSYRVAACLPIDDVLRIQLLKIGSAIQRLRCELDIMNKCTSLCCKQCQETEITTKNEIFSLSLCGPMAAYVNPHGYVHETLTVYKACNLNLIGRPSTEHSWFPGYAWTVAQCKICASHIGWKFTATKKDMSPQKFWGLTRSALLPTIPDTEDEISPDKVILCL
T2 sequence (Q16531 whole entry partner): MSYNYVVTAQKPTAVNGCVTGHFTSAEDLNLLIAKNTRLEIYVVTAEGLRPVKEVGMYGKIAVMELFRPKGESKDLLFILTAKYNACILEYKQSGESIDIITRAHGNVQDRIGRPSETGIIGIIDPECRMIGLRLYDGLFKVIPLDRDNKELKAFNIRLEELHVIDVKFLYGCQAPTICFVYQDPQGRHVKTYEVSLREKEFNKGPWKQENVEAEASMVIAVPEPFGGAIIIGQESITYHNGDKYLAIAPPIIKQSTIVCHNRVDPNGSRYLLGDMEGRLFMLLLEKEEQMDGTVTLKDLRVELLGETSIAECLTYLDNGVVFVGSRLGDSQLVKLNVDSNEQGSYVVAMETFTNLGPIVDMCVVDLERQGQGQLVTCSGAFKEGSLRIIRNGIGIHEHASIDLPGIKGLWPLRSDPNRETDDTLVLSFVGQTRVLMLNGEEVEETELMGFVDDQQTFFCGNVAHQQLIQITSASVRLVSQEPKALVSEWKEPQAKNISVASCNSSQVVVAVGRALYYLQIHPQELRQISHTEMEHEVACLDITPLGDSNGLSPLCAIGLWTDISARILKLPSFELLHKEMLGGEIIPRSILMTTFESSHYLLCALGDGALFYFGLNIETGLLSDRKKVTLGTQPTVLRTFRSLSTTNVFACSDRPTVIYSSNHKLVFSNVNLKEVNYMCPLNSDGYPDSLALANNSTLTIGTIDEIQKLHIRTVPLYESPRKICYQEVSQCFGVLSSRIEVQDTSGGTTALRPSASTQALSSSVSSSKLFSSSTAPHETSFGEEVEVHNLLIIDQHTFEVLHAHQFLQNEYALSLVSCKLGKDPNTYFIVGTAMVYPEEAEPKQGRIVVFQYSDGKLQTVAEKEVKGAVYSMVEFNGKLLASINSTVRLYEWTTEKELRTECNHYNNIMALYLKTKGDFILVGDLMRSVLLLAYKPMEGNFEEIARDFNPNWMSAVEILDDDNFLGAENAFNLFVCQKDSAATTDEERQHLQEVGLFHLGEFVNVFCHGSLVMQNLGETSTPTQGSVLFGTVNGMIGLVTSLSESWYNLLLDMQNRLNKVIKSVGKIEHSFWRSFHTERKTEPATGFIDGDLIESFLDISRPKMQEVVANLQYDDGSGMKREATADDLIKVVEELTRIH

IKZF2 = molecular target: T3, IKZF2 (Homo sapiens, UniProt Q96SW2+Q9UKS7); assay: as above; assay type: cell-based
T3 construct: effects of the compounds of the present disclosure on the expression of target proteins in cells; endogenous in cells; host or cells: human PBMCs (Milecell Biotechnologies)
T3 sequence (Q9UKS7 whole entry): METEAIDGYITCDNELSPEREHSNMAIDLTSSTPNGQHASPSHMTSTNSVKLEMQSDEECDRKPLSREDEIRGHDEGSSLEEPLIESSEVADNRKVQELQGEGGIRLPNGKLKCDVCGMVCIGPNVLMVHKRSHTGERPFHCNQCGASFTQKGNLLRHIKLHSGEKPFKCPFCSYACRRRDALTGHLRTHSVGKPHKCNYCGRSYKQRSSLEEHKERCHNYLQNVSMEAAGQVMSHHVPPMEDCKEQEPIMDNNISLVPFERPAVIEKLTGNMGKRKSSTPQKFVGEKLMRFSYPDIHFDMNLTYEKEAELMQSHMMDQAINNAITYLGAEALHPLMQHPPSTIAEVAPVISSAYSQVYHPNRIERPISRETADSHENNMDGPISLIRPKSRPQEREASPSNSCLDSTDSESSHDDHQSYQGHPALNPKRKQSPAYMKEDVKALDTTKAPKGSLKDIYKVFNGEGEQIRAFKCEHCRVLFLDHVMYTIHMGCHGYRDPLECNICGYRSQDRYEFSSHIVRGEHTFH
T3 sequence (Q96SW2 whole entry): as the sequence (Q96SW2 whole entry) above
T3 sequence (Q16531 whole entry partner): as the sequence (Q16531 whole entry partner) above

WEE1 = molecular target: T4, WEE1 (Homo sapiens, UniProt P30291+Q96SW2); assay: as above; assay type: cell-based
T4 construct: effects of the compounds of the present disclosure on the expression of target proteins in cells; endogenous in cells; host or cells: human PBMCs (Milecell Biotechnologies)
T4 sequence (P30291 whole entry): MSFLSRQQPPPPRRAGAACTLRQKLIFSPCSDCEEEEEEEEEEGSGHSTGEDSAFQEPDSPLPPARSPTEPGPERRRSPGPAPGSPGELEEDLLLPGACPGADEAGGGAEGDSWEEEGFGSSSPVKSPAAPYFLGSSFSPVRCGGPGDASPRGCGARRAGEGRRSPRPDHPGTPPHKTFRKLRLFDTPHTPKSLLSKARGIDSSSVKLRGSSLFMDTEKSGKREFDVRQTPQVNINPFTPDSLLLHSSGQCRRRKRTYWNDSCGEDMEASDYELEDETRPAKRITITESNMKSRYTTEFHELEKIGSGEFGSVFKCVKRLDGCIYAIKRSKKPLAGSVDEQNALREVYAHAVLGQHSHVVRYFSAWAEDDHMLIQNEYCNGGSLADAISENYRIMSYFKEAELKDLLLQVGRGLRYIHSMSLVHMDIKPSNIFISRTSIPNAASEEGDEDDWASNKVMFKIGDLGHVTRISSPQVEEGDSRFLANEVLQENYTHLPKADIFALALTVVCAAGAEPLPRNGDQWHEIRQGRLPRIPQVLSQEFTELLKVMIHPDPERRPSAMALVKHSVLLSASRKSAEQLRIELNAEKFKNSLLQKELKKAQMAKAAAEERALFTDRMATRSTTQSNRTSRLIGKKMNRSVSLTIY
T4 sequence (Q96SW2 whole entry): as the sequence (Q96SW2 whole entry) above
T4 sequence (Q16531 whole entry partner): as the sequence (Q16531 whole entry partner) above

CK1α = molecular target: T5, CK1α (Homo sapiens, UniProt P48729+Q96SW2); assay: as above; assay type: cell-based
T5 construct: effects of the compounds of the present disclosure on the expression of target proteins in cells; endogenous in cells; host or cells: human PBMCs (Milecell Biotechnologies)
T5 sequence (P48729 whole entry): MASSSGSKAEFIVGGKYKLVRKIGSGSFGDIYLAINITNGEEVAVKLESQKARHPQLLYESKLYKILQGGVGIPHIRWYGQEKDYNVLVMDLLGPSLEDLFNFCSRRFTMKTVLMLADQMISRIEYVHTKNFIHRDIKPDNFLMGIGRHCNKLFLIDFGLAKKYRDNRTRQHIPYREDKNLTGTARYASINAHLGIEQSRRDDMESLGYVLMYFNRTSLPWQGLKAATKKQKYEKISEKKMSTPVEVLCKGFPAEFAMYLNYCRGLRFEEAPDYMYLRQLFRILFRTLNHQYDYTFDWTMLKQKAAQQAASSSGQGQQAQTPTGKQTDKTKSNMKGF
T5 sequence (Q96SW2 whole entry): as the sequence (Q96SW2 whole entry) above
T5 sequence (Q16531 whole entry partner): as the sequence (Q16531 whole entry partner) above

[1] = molecular target: T6, human Cereblon WT GST-tagged protein (Homo sapiens, UniProt Q96SW2); assay: CRBN-binding affinity, HTRF (CEREBLON BINDING kit); conditions: for inhibition at 0.5 µM: read-out: Inhibition Rate at 0.5 µM (%); for inhibition at 2 µM: read-out: Inhibition Rate at 2 µM (%)
T6 construct: purchased CISBIO 64BDCRBNPEH
T6 sequence (Q96SW2 whole entry): as the sequence (Q96SW2 whole entry) above

[2] = test system: Human myeloid monocytic leukemia cell (MV-4-11); assay: Tumor cell proliferation inhibition (CellTiter-Meiluncell luminescent cell viability assay); conditions: MV4-11, 96 h; for inhibition at 0.01 µM: read-out: Inhibition Rate at 10 nM (%); for inhibition at 0.5 µM: read-out: Inhibition Rate at 500 nM (%)
GSPT1 = assay: Western blot, degradation of substrate protein in hPBMCs; assay type: cell-based, Human
[3] = Western blot, 24 hours of compound treatment, compounds tested at 50 nM and 500 nM (concentration for the table not stated)
[4] = 24 hours treatment, compounds at 50 nM and 500 nM (concentration behind the class not stated)

T1 sequence (Q13422 whole entry): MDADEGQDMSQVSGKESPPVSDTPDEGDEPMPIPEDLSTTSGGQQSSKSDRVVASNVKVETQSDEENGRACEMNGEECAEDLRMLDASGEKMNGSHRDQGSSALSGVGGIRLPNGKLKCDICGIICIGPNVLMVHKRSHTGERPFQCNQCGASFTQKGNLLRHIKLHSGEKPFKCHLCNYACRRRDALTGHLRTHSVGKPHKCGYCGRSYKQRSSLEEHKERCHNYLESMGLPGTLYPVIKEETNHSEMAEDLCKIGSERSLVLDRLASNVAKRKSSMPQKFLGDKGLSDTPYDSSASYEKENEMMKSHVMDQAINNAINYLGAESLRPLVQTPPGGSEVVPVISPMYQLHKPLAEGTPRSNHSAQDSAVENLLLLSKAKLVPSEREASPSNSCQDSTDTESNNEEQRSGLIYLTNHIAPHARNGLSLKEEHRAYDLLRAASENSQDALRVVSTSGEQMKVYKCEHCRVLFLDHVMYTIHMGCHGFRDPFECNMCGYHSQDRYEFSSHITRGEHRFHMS
T1 sequence (Q96SW2 whole entry): as the sequence (Q96SW2 whole entry) above
T1 sequence (Q16531 whole entry partner): as the sequence (Q16531 whole entry partner) above

Compound | IKZF 1 substrate protein remaining % (IKZF1; [3]) | IKZF3 substrate protein remaining % (IKZF3; [3]) | IKZF2 substrate protein remaining % (IKZF2; [3]) | Wee1 substrate protein remaining % (WEE1; [3]) | CK1α substrate protein remaining % (CK1α; [3]) | inhibition at 0.5 µM [1] [%] | inhibition at 2 µM [1] [%] | inhibition at 0.01 µM [2] [%] | inhibition at 0.5 µM [2] [%] | GSPT1 substrate protein remaining % (GSPT1; [3]) | IKZF 1 substrate protein remaining % (IKZF1; [4]) | IKZF3 substrate protein remaining % (IKZF3; [4]) | IKZF2 substrate protein remaining % (IKZF2; [4]) | Wee1 substrate protein remaining % (WEE1; [4]) | CK1α substrate protein remaining % (CK1α; [4]) | GSPT1 substrate protein remaining % (GSPT1; [4])
O=C1CCC(N2Cc3c(CN4CCC(c5c[nH]c6cc(F)ccc56)CC4)cccc3C2=S)C(=O)N1 (centres unmarked) [GT-08492, 3-(4-((4-(6-fluoro-1H-indol-3-yl)piperidin-1-yl)methyl)-1-thioxoisoindolin-2-yl)piperidine-2,6-dione] | B (80%< substrate protein remaining %≤ 100%) | B (80%< substrate protein remaining %≤ 100%) | B (80%< substrate protein remaining %≤ 100%) | A (0% ≤ substrate protein remaining % ≤ 80%) | B (80%< substrate protein remaining %≤ 100%) | 60 to 80 | 80 to 100 | 30 to 40 | 40 to 60 | B (80%< substrate protein remaining %≤ 100%) | – | – | – | – | – | –
O=C1CCC(N2Cc3cc(CN4CCN(c5cncc(Cl)c5Cl)CC4)ccc3C2=S)C(=O)N1 (centres unmarked) [GT-09231, 3-(5-((4-(4,5-dichloropyridin-3-yl)piperazin-1-yl)methyl)-1-thioxoisoindolin-2-yl)piperidine-2,6-dione] | A (0% ≤ substrate protein remaining % ≤ 80%) | A (0% ≤ substrate protein remaining % ≤ 80%) | A (0% ≤ substrate protein remaining % ≤ 80%) | B (80%< substrate protein remaining %≤ 100%) | A (0% ≤ substrate protein remaining % ≤ 80%) | 60 to 80 | 80 to 100 | 30 to 40 | 40 to 60 | A (0% ≤ substrate protein remaining % ≤ 80%) | – | – | – | – | – | –
O=C1CCC(N2Cc3cc(CN4CCN(c5cccc(C(F)(F)F)n5)CC4)ccc3C2=S)C(=O)N1 (centres unmarked) [GT-09224, 3-(1-thioxo-5-((4-(6-(trifluoromethyl)pyridin-2-yl)piperazin-1-yl)methyl)isoindolin-2-yl)piperidine-2,6-dione] | B (80%< substrate protein remaining %≤ 100%) | A (0% ≤ substrate protein remaining % ≤ 80%) | B (80%< substrate protein remaining %≤ 100%) | B (80%< substrate protein remaining %≤ 100%) | A (0% ≤ substrate protein remaining % ≤ 80%) | 60 to 80 | 80 to 100 | -5 to 0 | 40 to 60 | A (0% ≤ substrate protein remaining % ≤ 80%) | – | – | – | – | – | –
Cc1cccc(N2CCN(Cc3ccc4c(c3)CN(C3CCC(=O)NC3=O)C4=S)CC2)n1 (centres unmarked) [GT-09214, 3-(5-((4-(6-methylpyridin-2-yl)piperazin-1-yl)methyl)-1-thioxoisoindolin-2-yl)piperidine-2,6-dione] | B (80%< substrate protein remaining %≤ 100%) | B (80%< substrate protein remaining %≤ 100%) | B (80%< substrate protein remaining %≤ 100%) | B (80%< substrate protein remaining %≤ 100%) | B (80%< substrate protein remaining %≤ 100%) | 60 to 80 | 80 to 100 | 10 to 18 | 40 to 60 | A (0% ≤ substrate protein remaining % ≤ 80%) | – | – | – | – | – | –
Cc1cc(C2CCN(Cc3cccc4c3CN(C3CCC(=O)NC3=O)C4=S)CC2)cs1 (centres unmarked) [GT-08316, 3-(4-((4-(5-methylthiophen-3-yl)piperidin-1-yl)methyl)-1-thioxoisoindolin-2-yl)piperidine-2,6-dione] | – | – | – | – | – | 40 to 53 | 60 to 80 | 18 to 25 | 40 to 60 | – | B (80%< substrate protein remaining %≤ 100%) | B (80%< substrate protein remaining %≤ 100%) | B (80%< substrate protein remaining %≤ 100%) | A (0% ≤ substrate protein remaining % ≤ 80%) | B (80%< substrate protein remaining %≤ 100%) | B (80%< substrate protein remaining %≤ 100%)
O=C1CCC(N2Cc3c(CN4CCC(c5ccccc5)CC4)cccc3C2=S)C(=O)N1 (centres unmarked) [GT-08506, 3-(4-((4-phenylpiperidin-1-yl)methyl)-1-thioxoisoindolin-2-yl)piperidine-2,6-dione] | B (80%< substrate protein remaining %≤ 100%) | A (0% ≤ substrate protein remaining % ≤ 80%) | A (0% ≤ substrate protein remaining % ≤ 80%) | A (0% ≤ substrate protein remaining % ≤ 80%) | B (80%< substrate protein remaining %≤ 100%) | – | – | 30 to 40 | 40 to 60 | A (0% ≤ substrate protein remaining % ≤ 80%) | – | – | – | – | – | –
CC1(C)CCC(CN2CCN(Cc3cccc4c3CN(C3CCC(=O)NC3=O)C4=S)CC2)=C(c2ccc(Cl)cc2)C1 (centres unmarked) [GT-08303, 3-(4-((4-((4'-chloro-5,5-dimethyl-3,4,5,6-tetrahydro-[1,1'-biphenyl]-2-yl)methyl)piperazin-1-yl)methyl)-1-thioxoisoindolin-2-yl)piperidine-2,6-dione] | – | – | – | – | – | 30 to 40 | 60 to 80 | 40 to 60 | 40 to 60 | – | – | – | – | – | – | –
Cc1ccsc1C1CCN(Cc2cccc3c2CN(C2CCC(=O)NC2=O)C3=S)CC1 (centres unmarked) [GT-08314, 3-(4-((4-(3-methylthiophen-2-yl)piperidin-1-yl)methyl)-1-thioxoisoindolin-2-yl)piperidine-2,6-dione] | – | – | – | – | – | 40 to 53 | 60 to 80 | 40 to 60 | 60 to 80 | – | B (80%< substrate protein remaining %≤ 100%) | B (80%< substrate protein remaining %≤ 100%) | B (80%< substrate protein remaining %≤ 100%) | A (0% ≤ substrate protein remaining % ≤ 80%) | B (80%< substrate protein remaining %≤ 100%) | B (80%< substrate protein remaining %≤ 100%)
O=C1CCC(N2Cc3cc(CN4CCN(c5ncccc5F)CC4)ccc3C2=S)C(=O)N1 (centres unmarked) [GT-09220, 3-(5-((4-(3-fluoropyridin-2-yl)piperazin-1-yl)methyl)-1-thioxoisoindolin-2-yl)piperidine-2,6-dione] | A (0% ≤ substrate protein remaining % ≤ 80%) | B (80%< substrate protein remaining %≤ 100%) | A (0% ≤ substrate protein remaining % ≤ 80%) | A (0% ≤ substrate protein remaining % ≤ 80%) | B (80%< substrate protein remaining %≤ 100%) | 60 to 80 | 80 to 100 | 30 to 40 | 40 to 60 | B (80%< substrate protein remaining %≤ 100%) | – | – | – | – | – | –
O=C1CCC(N2Cc3c(CN4CCN(c5ccc(C(F)(F)F)cc5)CC4)cccc3C2=S)C(=O)N1 (centres unmarked) [GT-08262, 3-(1-thioxo-4-((4-(4-(trifluoromethyl)phenyl)piperazin-1-yl)methyl)isoindolin-2-yl)piperidine-2,6-dione] | B (80%< substrate protein remaining %≤ 100%) | B (80%< substrate protein remaining %≤ 100%) | B (80%< substrate protein remaining %≤ 100%) | A (0% ≤ substrate protein remaining % ≤ 80%) | A (0% ≤ substrate protein remaining % ≤ 80%) | 30 to 40 | 60 to 80 | 25 to 30 | 40 to 60 | A (0% ≤ substrate protein remaining % ≤ 80%) | – | – | – | – | – | –
O=C1CCC(N2Cc3cc(CN4CCN(c5ccnc(F)c5F)CC4)ccc3C2=S)C(=O)N1 (centres unmarked) [GT-09242, 3-(5-((4-(2,3-difluoropyridin-4-yl)piperazin-1-yl)methyl)-1-thioxoisoindolin-2-yl)piperidine-2,6-dione] | – | – | – | – | – | 60 to 80 | 80 to 100 | 60 to 80 | 30 to 40 | – | – | – | – | – | – | –
O=C1CCC(N2Cc3cc(CN4CCC(c5ccnc(F)c5F)CC4)ccc3C2=S)C(=O)N1 (centres unmarked) [GT-08473, 3-(5-((4-(2,3-difluoropyridin-4-yl)piperidin-1-yl)methyl)-1-thioxoisoindolin-2-yl)piperidine-2,6-dione] | – | – | – | – | – | 60 to 80 | 80 to 100 | 40 to 60 | 40 to 60 | – | – | – | – | – | – | –
O=C1CCC(N2Cc3cc(CN4CCN(c5ncc(Cl)cc5Cl)CC4)ccc3C2=S)C(=O)N1 (centres unmarked) [GT-09226, 3-(5-((4-(3,5-dichloropyridin-2-yl)piperazin-1-yl)methyl)-1-thioxoisoindolin-2-yl)piperidine-2,6-dione] | – | – | – | – | – | 60 to 80 | 80 to 100 | 30 to 40 | 40 to 60 | – | – | – | – | – | – | –
